Results published in patent US10383859B2, “Benzo[d]thiazole derivative or salt thereof, and pharmaceutical composition including same” (Yuhan Corporation, priority 2016, dated 2019).
Read-outs that look alike come from different tables or passages of the source.

Tested on: A549 cells
Assay: Cell migration assay (24-well transwell, laminin)
Format: cell-based, human
Conditions: laminin 10 μg/mL in lower well, test compounds 0.39˜100 μM, migrated cells counted, read-out: Inhibitory activity against cell migration
Experimental: Cell migration was measured with a 24-well transwell having a polycarbonate membrane (8.0 μm pore size, Costar) at the bottom of the upper chamber. Each lower well was treated with laminin (10 μg/mL) and test compounds in predetermined concentrations (0.39˜100 μM) along with a serum-free RPMI1640 medium. A549 cells (Korean Cell Line Bank) were suspended in a serum-free RPMI1640 medium at a concentration of 1×10^6 cells/mL and then the test compounds were added thereto at the indicated concentrations. Each resulting solution (100 μL) was added to the upper chamber. The cells were cultured at 37° C. for 6 hours in a CO2 incubator. The upper chamber was taken out and then the cells were fixed with PBS containing 70% methyl alcohol for 10 minutes, followed by washing with PBS twice. The cells were stained with hematoxylin (Sigma) for 10 minutes and then washed with distilled water. The non-migrated cells were removed from the upper portion of the polycarbonate membrane with a cotton swab. The membranes were excised and separated from the chamber, and then mounted to a slide using a gel mount reagent (Biomeda, USA). The migrated cells (attached to the lower face of the membrane) were counted at three randomly selected sites under a microscope (×20). The cell counting was performed with the Image J program. From the counted cell numbers, each IC50 value was calculated by non-linear regression curve fit using the “GraphPad Prism” program.
The cells are pulled by laminin residing in the lower chamber and then passed through the polycarbonate membrane, so as to attach to the lower face of the membrane.

SMILES | IC50 (Homo sapiens, A549, 6 h) [nM] | IC50 (6 hours) [nM]
COc1ccc(CCN(Cc2ccc(C(=O)O)cc2)c2nc3cccc(F)c3s2)cc1 [Example 1, 4-({(7-fluorobenzo[d]thiazol-2-yl)[2-(4-methoxyphenyl)ethyl]amino}methyl)benzoic acid] | < 1000 | –
O=C(O)c1ccc(CN(CCc2ccccc2Cl)c2nc3cccc(F)c3s2)cc1 [Example 2, 4-(((2-chlorophenylethyl)(7-fluorobenzo[d]thiazol-2-yl)amino)methyl)benzoic acid] | < 1000 | –
O=C(O)c1ccc(CN(CCc2cccc(F)c2)c2nc3cccc(F)c3s2)cc1 [Example 3, 4-({(7-fluorobenzo[d]thiazol-2-yl)[2-(3-fluorophenyl)ethyl]amino}methyl)benzoic acid] | > 10000 | –
O=C(O)c1ccc(CN(CCc2ccc(Cl)cc2)c2nc3cccc(F)c3s2)cc1 [Example 4, 4-{[[2-(4-chlorophenyl)ethyl](7-fluorobenzo[d]thiazol-2-yl)amino]methyl}benzoic acid] | 1000 to 10000 | –
O=C(O)c1ccc(CN(CCc2cccc(Cl)c2)c2nc3cccc(F)c3s2)cc1 [Example 5, 4-{[[2-(3-chlorophenyl)ethyl](7-fluorobenzo[d]thiazol-2-yl)amino]methyl}benzoic acid] | > 10000 | –
Cc1ccc(CCN(Cc2ccc(C(=O)O)cc2)c2nc3cccc(F)c3s2)cc1 [Example 6, 4-(((7-fluorobenzo[d]thiazol-2-yl)(4-methylphenylethyl)amino)methyl)benzoic acid] | < 1000 | –
COc1cccc(CCN(Cc2ccc(C(=O)O)cc2)c2nc3cccc(F)c3s2)c1 [Example 7, 4-({(7-fluorobenzo[d]thiazol-2-yl)[2-(3-methoxyphenyl)ethyl]amino}methyl)benzoic acid] | – | 1000 to 10000
O=C(O)c1ccc(CN(CCc2ccc(F)cc2)c2nc3cccc(F)c3s2)cc1 [Example 8, 4-({(7-fluorobenzo[d]thiazol-2-yl)[2-(4-fluorophenyl)ethyl]amino}methyl)benzoic acid] | > 10000 | –
CCOc1ccc(CCN(Cc2ccc(C(=O)O)cc2)c2nc3cccc(F)c3s2)cc1 [Example 9, 4-{[[2-(4-ethoxyphenyl)ethyl](7-fluorobenzo[d]thiazol-2-yl)amino]methyl}benzoic acid] | < 1000 | –
CCCOc1ccc(CCN(Cc2ccc(C(=O)O)cc2)c2nc3cccc(F)c3s2)cc1 [Example 10, 4-({(7-fluorobenzo[d]thiazol-2-yl)[2-(4-propoxyphenyl)ethyl]amino}methyl)benzoic acid] | 1000 to 10000 | –
CC(C)Oc1ccc(CCN(Cc2ccc(C(=O)O)cc2)c2nc3cccc(F)c3s2)cc1 [Example 11, 4-({(7-fluorobenzo[d]thiazol-2-yl)[2-(4-isopropoxyphenyl)ethyl]amino}methyl)benzoic acid] | 1000 to 10000 | –
CSc1ccc(CCN(Cc2ccc(C(=O)O)cc2)c2nc3cccc(F)c3s2)cc1 [Example 12, 4-{[(7-fluorobenzo[d]thiazol-2-yl){2-[4-(methylsulfanyl)phenyl]ethyl}amino]methyl}benzoic acid] | < 1000 | –
CSc1cccc(CCN(Cc2ccc(C(=O)O)cc2)c2nc3cccc(F)c3s2)c1 [Example 13, 4-{[(7-fluorobenzo[d]thiazol-2-yl){2-[3-(methylsulfanyl)phenyl]ethyl}amino]methyl}benzoic acid] | < 1000 | –
COc1ccc(OC)c(CCN(Cc2ccc(C(=O)O)cc2)c2nc3cccc(F)c3s2)c1 [Example 14, 4-({[2-(2,5-dimethoxyphenyl)ethyl](7-fluorobenzo[d]thiazol-2-yl)amino}methyl)benzoic acid] | > 10000 | –
COc1ccc(CCN(Cc2ccc(C(=O)O)cc2)c2nc3cccc(F)c3s2)cc1OC [Example 15, 4-({[2-(3,4-dimethoxyphenyl)ethyl](7-fluorobenzo[d]thiazol-2-yl)amino}methyl)benzoic acid] | < 1000 | –
COc1ccccc1CCN(Cc1ccc(C(=O)O)cc1)c1nc2cccc(F)c2s1 [Example 16, 4-({(7-fluorobenzo[d]thiazol-2-yl)[2-(2-methoxyphenyl)ethyl]amino}methyl)benzoic acid] | > 10000 | –
Cc1cccc(CCN(Cc2ccc(C(=O)O)cc2)c2nc3cccc(F)c3s2)c1 [Example 17, 4-({(7-fluorobenzo[d]thiazol-2-yl)[2-(3-methylphenyl)ethyl]amino}methyl)benzoic acid] | > 10000 | –
CC(C)COc1ccc(CCN(Cc2ccc(C(=O)O)cc2)c2nc3cccc(F)c3s2)cc1 [Example 18, 4-({(7-fluorobenzo[d]thiazol-2-yl)[2-(4-isobutoxyphenyl)ethyl]amino}methyl)benzoic acid] | 1000 to 10000 | –

SMILES | IC50 (Homo sapiens, A549, 6 h) [nM] | IC50 (6 hours) [nM]
O=C(O)c1ccc(CN(CCc2ccc(OCC3CC3)cc2)c2nc3cccc(F)c3s2)cc1 [Example 19, 4-{[[2-(4-cyclopropylmethoxyphenyl)ethyl](7-fluorobenzo[d]thiazol-2-yl)amino]methyl}benzoic acid] | < 1000 | –
CNc1ccc(CCN(Cc2ccc(C(=O)O)cc2)c2nc3cccc(F)c3s2)cc1 [Example 20, 4-{[(7-fluorobenzo[d]thiazol-2-yl){2-[4-(methylamino)phenyl]ethyl}amino]methyl}benzoic acid] | < 1000 | –
CN(C)c1ccc(CCN(Cc2ccc(C(=O)O)cc2)c2nc3cccc(F)c3s2)cc1 [Example 21, 4-{[{2-[4-(dimethylamino)phenyl]ethyl}(7-fluorobenzo[d]thiazol-2-yl)amino]methyl}benzoic acid] | < 1000 | –
O=C(O)c1ccc(CN(CCc2ccccc2)c2nc3cccc(F)c3s2)cc1 [Example 22, 4-{[(7-fluorobenzo[d]thiazol-2-yl)(2-phenylethyl)amino]methyl}benzoic acid] | 1000 to 10000 | –
O=C(O)c1ccc(CN(CCc2ccc(OCC3CCCCC3)cc2)c2nc3cccc(F)c3s2)cc1 [Example 23, 4-{[[2-(4-cyclohexylmethoxyphenyl)ethyl]-(7-fluorobenzo[d]thiazol-2-yl)amino]methyl}benzoic acid] | > 10000 | –
O=C(O)c1ccc(CN(CCc2ccc(OCC3CCC3)cc2)c2nc3cccc(F)c3s2)cc1 [Example 24, 4-{[[2-(4-cyclobutylmethoxyphenyl)ethyl]-(7-fluorobenzo[d]thiazol-2-yl)amino]methyl}benzoic acid] | 1000 to 10000 | –
CCOc1ccc(CCN(Cc2ccc(C(=O)O)cc2)c2nc3cccc(F)c3s2)cc1OC [Example 25, 4-({[2-(4-ethoxy-3-methoxyphenyl)ethyl](7-fluorobenzo[d]thiazol-2-yl)amino}methyl)benzoic acid] | > 10000 | –
COc1ccc(CCN(Cc2ccc(C(=O)O)cc2)c2nc3cccc(F)c3s2)c(F)c1 [Example 26, 4-({(7-fluorobenzo[d]thiazol-2-yl)[2-(2-fluoro-4-methoxyphenyl)ethyl]amino}methyl)benzoic acid] | < 1000 | –
COc1ccc(CCN(Cc2ccc(C(=O)O)cc2)c2nc3cccc(F)c3s2)c(OC)c1 [Example 27, 4-({[2-(2,4-dimethoxyphenyl)ethyl](7-fluorobenzo[d]thiazol-2-yl)amino}methyl)benzoic acid] | 1000 to 10000 | –
COc1ccc(CCN(Cc2ccc(C(=O)O)cc2)c2nc3cccc(F)c3s2)cc1F [Example 28, 4-({(7-fluorobenzo[d]thiazol-2-yl)[2-(3-fluoro-4-methoxyphenyl)ethyl]amino}methyl)benzoic acid] | < 1000 | –
COc1ccc(CCN(Cc2ccc(C(=O)O)cc2)c2nc3cccc(F)c3s2)cc1Cl [Example 29, 4-({[2-(3-chloro-4-methoxyphenyl)ethyl](7-fluorobenzo[d]thiazol-2-yl)amino}methyl)benzoic acid] | < 1000 | –
CCC(C)Oc1ccc(CCN(Cc2ccc(C(=O)O)cc2)c2nc3cccc(F)c3s2)cc1 (centres unmarked) [Example 30, 4-{[[2-(4-sec-butoxyphenyl)ethyl](7-fluorobenzo[d]thiazol-2-yl)amino]methyl}benzoic acid] | > 10000 | –
CCNc1ccc(CCN(Cc2ccc(C(=O)O)cc2)c2nc3cccc(F)c3s2)cc1 [Example 31, 4-{[[2-(4-ethylaminophenyl)ethyl](7-fluorobenzo[d]thiazol-2-yl)amino]methyl}benzoic acid] | 1000 to 10000 | –
CCc1ccc(CCN(Cc2ccc(C(=O)O)cc2)c2nc3cccc(F)c3s2)cc1 [Example 32, 4-({[2-(4-ethylphenyl)ethyl](7-fluorobenzo[d]thiazol-2-yl)amino}methyl)benzoic acid] | < 1000 | –
CC(C)c1ccc(CCN(Cc2ccc(C(=O)O)cc2)c2nc3cccc(F)c3s2)cc1 [Example 33, 4-{[(7-fluorobenzo[d]thiazol-2-yl){2-[4-(propan-2-yl)phenyl]ethyl}amino]methyl}benzoic acid] | > 10000 | –
O=C(O)c1ccc(CN(CCc2cccc(F)c2F)c2nc3cccc(F)c3s2)cc1 [Example 34, 4-({[2-(2,3-difluorophenyl)ethyl](7-fluorobenzo[d]thiazol-2-yl)amino}methyl)benzoic acid] | > 10000 | –
O=C(O)c1ccc(CN(CCc2cc(F)ccc2F)c2nc3cccc(F)c3s2)cc1 [Example 35, 4-({[2-(2,5-difluorophenyl)ethyl](7-fluorobenzo[d]thiazol-2-yl)amino}methyl)benzoic acid] | > 10000 | –
